Measured values published in patent publication US11753374B2, “Compounds for the treatment of acute and chronic kidney disease” (Southern Research Institute, priority 2020, dated 2023).

Test system: heme oxygenase-1 (HO-1)
Experiment: High throughput screen: HO-1 promoter/enhancer luciferase reporter (pHOGL3/4.5+220) in stable HEK293 cells
Assay type: cell-based
Settings: Homo sapiens; for EC50: Table 1, evaluation of biaryl aminomaleimides, HO-1 induction; for Emax: Table 1, unit inferred, Emax as % of 5 μM hemin
Protocol: The generation of the pHOGL3/4.5+220 construct is described in Deshane, et al. (2010) “SpI regulates chromatin looping between an intronic enhancer and distal promoter of the human heme oxygenase-1 gene in renal cells” J Biol Chem 285(22): 16476-86. See also FIG. 1.
Briefly, BamHI sites were added to the 4.5-kb PCR product generated by long-range PCR from a bacterial artificial chromosome clone containing portions of chromosome 22 (accession no. Z82244), including the HO-1 gene. This fragment was cloned into the BglII restriction site of the multiple cloning region to make the parental clone (pHOGL3/4.5). The 220-bp intronic enhancer was amplified with SalI sites on either end and cloned into the SalI site of the vector to generate pHOGL3/4.5+220.
In order to generate cells that stably express luciferase expression vectors that lack a mammalian antibiotic selection cassette, HEK293 cells were co-transfected with either pHOGL3/4.5+220 (Deshane et al, 2010) or the Triple Mutant construct (Liby, Hock et al, 2005; Hock et al, 2007) and pcDNA3.1 Zeocin using Lipofectamine 2000. Cells were cultured in Zeocin (400 ug/ml; Invitrogen) for selection. Individual clones were sorted by flow cytometry and plated into a 96-well plate at a density of one cell per well. Clones were maintained and expanded in complete media (DMEM/10% FBS/1× antibiotic-antimycotic) supplemented with 100 ug/ml Zeocin, and incubated at 37° C. in 5% carbon dioxide. Incorporation of the Luciferase expression vectors was validated by assaying for luciferase.
A library of over 150,000 compounds, as well as a library of over 4,000 FDA approved compounds, were used in the HTS assay. […] This led to the identification of approximately 800 compounds that induce HO-1 and have desirable chemical structures. […] The In-Cell Western assay was optimized to screen for endogenous HO-1 in a high throughput platform, and results were validated by Western blot, real-time PCR, and enzyme activity assays. Additional RNA sequencing studies highlighted a role for the transcription factor Nrf2 and other targets in HO-1 induction by several small molecules.

| SMILES | EC50 | Emax |
| --- | --- | --- |
| COc1ccc(N2C(=O)C=C(Nc3cc(F)c(O)c(F)c3)C2=O)cc1C#N [Compound 56] | 8.39 µM | 36.1% |
| O=C1C=C(Nc2ccc(O)c3ncccc23)C(=O)N1c1ccccc1 [Compound 13] | > 50 µM | – |
| COc1c(F)cc(NC2=CC(=O)N(c3ccccc3)C2=O)cc1F [Compound 23] | > 50 µM | – |
| Cc1ccc(N2C(=O)C=C(Nc3cc(F)c(O)c(F)c3)C2=O)cc1 [Compound 35] | 2.1 µM | 96.8% |
| O=C1C=C(Nc2cc(O)c(Cl)cc2F)C(=O)N1c1ccccc1 [Compound 19] | > 50 µM | – |
| CN(C)c1ccc(N2C(=O)C=C(Nc3cc(F)c(O)c(F)c3)C2=O)cc1 [Compound 53] | 3.35 µM | 94.1% |
| O=C1C=C(Nc2cc(F)c(O)c(F)c2)C(=O)N1c1ccc(N2CCOCC2)cc1 [Compound 60] | 22.2 µM | 66.9% |
| O=C1C=C(Nc2cc(F)c(O)c(F)c2)C(=O)N1c1ccccc1F [Compound 48] | 13.7 µM | 82.9% |
| O=C(O)c1ccc(NC2=CC(=O)N(c3ccccc3)C2=O)cc1 [Compound 24] | > 50 µM | – |
| O=C1C=C(Nc2ccc(O)cc2)C(=O)N1c1cc(F)c(O)c(F)c1 [Compound 69] | 16.7 µM | 105% |
| COc1ccc(N2C(=O)C=C(Nc3cc(F)c(O)c(F)c3)C2=O)cc1F [Compound 57] | 5.67 µM | 98.7% |
| COc1c(Cl)cccc1N1C(=O)C=C(Nc2cc(F)c(O)c(F)c2)C1=O [Compound 34] | > 50 µM | 28.3% |
| O=C1C=C(Nc2cc(F)c(O)c(F)c2)C(=O)N1c1ccc(F)cc1 [Compound 26] | 4.21 µM | 80.7% |
| O=C1C=C(Nc2ccc(F)c(F)c2O)C(=O)N1c1ccccc1 [Compound 17] | 12 µM | 54.4% |
| O=C1C=C(Nc2cc(F)c(O)c(F)c2)C(=O)N1c1ccc(-c2ccccc2)cc1 [Compound 62] | 2.75 µM | 34.6% |
| O=C1C=C(N2CCN(c3ccc(O)cc3)CC2)C(=O)N1c1ccccc1 [Compound 22] | > 50 µM | – |
| O=C1C=C(Nc2cc(F)c(O)c(F)c2)C(=O)N1c1cccc(F)c1 [Compound 63] | 3.19 µM | 30% |
| O=C1C=C(Nc2cc(F)c(O)c(F)c2)C(=O)N1c1ccc(O)cc1 [Compound 50] | 15.3 µM | 75.2% |
| O=C1C=C(Nc2cc(F)c(O)c(F)c2)C(=O)N1c1ccc(N2CCCCC2)cc1 [Compound 41] | 11.5 µM | 70.4% |
| COc1c(F)cc(N2C(=O)C=C(Nc3cc(F)c(O)c(F)c3)C2=O)cc1F [Compound 49] | 8.37 µM | 69.6% |
| Cc1cc(NC2=CC(=O)N(c3ccccc3)C2=O)cc(C)c1O [Compound 12] | 7.55 µM | 39.3% |
| O=C1C=C(Nc2ccccc2)C(=O)N1c1cc(F)c(O)c(F)c1 [Compound 70] | > 50 µM | – |

| SMILES | EC50 | Emax |
| --- | --- | --- |
| NC(=O)c1cccc(N2C(=O)C=C(Nc3cc(F)c(O)c(F)c3)C2=O)c1 [Compound 51] | 15.4 µM | 62.4% |
| CC(C)(C)c1ccc(N2C(=O)C=C(Nc3cc(F)c(O)c(F)c3)C2=O)cc1 [Compound 58] | 1.73 µM | 53.3% |
| O=C1C=C(Nc2ccc(O)c(F)c2)C(=O)N1c1ccccc1 [Compound 3] | 1.86 µM | 56.4% |
| O=C1C=C(Nc2ccc(O)c(Cl)c2)C(=O)N1c1ccccc1 [Compound 7] | > 50 µM | – |
| O=C1C=C(Nc2ccc(O)cc2Cl)C(=O)N1c1ccccc1 [Compound 6] | 1.74 µM | 20.4% |
| O=C1C=C(Nc2ccc(O)c(F)c2F)C(=O)N1c1ccccc1 [Compound 8] | 5.49 µM | 41.7% |
| COC(=O)c1cccc(N2C(=O)C=C(Nc3cc(F)c(O)c(F)c3)C2=O)c1 [Compound 65] | 15.6 µM | 42.8% |
| O=C1C=C(Nc2cc(F)c(O)c(F)c2)C(=O)N1c1cccc(C(F)(F)F)c1 [Compound 64] | 3.33 µM | 23.9% |
| O=C1C=C(Nc2cc(F)c(O)c(F)c2)C(=O)N1c1ccc(OC(F)(F)F)cc1 [Compound 31] | 2.31 µM | 64% |
| O=C1C=C(Nc2cc(F)c(O)c(F)c2)C(=O)N1c1ccc(-c2cscn2)cc1 [Compound 59] | 9.22 µM | 43.9% |
| O=C1C=C(Nc2cc(F)c(O)c(F)c2)C(=O)N1C1CC1 [Compound 68] | > 50 µM | – |
| Nc1ccc(NC2=CC(=O)N(c3ccccc3)C2=O)cc1 [Compound 25] | > 50 µM | – |
| COc1ccccc1N1C(=O)C=C(Nc2cc(F)c(O)c(F)c2)C1=O [Compound 54] | 20 µM | 54.9% |
| O=C1C=C(Nc2cc(O)c(Cl)cc2Cl)C(=O)N1c1ccccc1 [Compound 20] | > 50 µM | – |
| O=C1C=C(Nc2cc(F)c(O)c(F)c2)C(=O)N1c1cc(F)cc(F)c1 [Compound 27] | > 50 µM | 72.6% |
| O=C1C=C(Nc2cc(F)c(O)c(F)c2)C(=O)N1c1ccc(-c2ncco2)cc1 [Compound 42] | > 50 µM | – |
| COc1cc(N2C(=O)C=C(Nc3cc(F)c(O)c(F)c3)C2=O)ccc1F [Compound 52] | 14 µM | 53.1% |
| O=C1C=C(Nc2cc(F)c(O)c(F)c2)C(=O)N1c1ccc(Cl)cc1 [Compound 29] | 3.34 µM | 110% |
| O=C1C=C(Nc2ccc(O)cc2F)C(=O)N1c1ccccc1 [Compound 4] | 1.78 µM | 38.9% |
| Cc1ccc(N2C(=O)C=C(Nc3cc(F)c(O)c(F)c3)C2=O)cc1C [Compound 37] | 1.56 µM | 57.2% |
| O=C1C=C(Nc2cc(F)c(O)c(F)c2)C(=O)N1CCc1ccccc1 [Compound 46] | 0.43 µM | 68.5% |
| O=C1C=C(Nc2ccc(O)c(C(F)(F)F)c2)C(=O)N1c1ccccc1 [Compound 11] | > 50 µM | – |

| SMILES | EC50 | Emax |
| --- | --- | --- |
| O=C1C=C(Nc2cc(F)c(O)c(F)c2)C(=O)N1c1ccc(OC(F)F)cc1 [Compound 55] | 2.27 µM | 93.3% |
| COc1cc(N2C(=O)C=C(Nc3cc(F)c(O)c(F)c3)C2=O)cc(OC)c1OC [Compound 33] | 2.08 µM | 28.4% |
| O=C1C=C(Nc2cc(F)cc(F)c2O)C(=O)N1c1ccccc1 [Compound 15] | > 50 µM | – |
| Cc1ccc(N2C(=O)C=C(Nc3cc(F)c(O)c(F)c3)C2=O)c(C)c1 [Compound 38] | 2.29 µM | 57% |
| O=C1C=C(Nc2c(F)cc(O)cc2F)C(=O)N1c1ccccc1 [Compound 10] | > 50 µM | – |
| CC(C)c1ccc(N2C(=O)C=C(Nc3cc(F)c(O)c(F)c3)C2=O)cc1 [Compound 36] | 0.89 µM | 52.5% |
| O=C1C=C(Nc2ccc(O)cc2)C(=O)N1c1ccccc1 [Compound 2] | 1.81 µM | 38.1% |
| COc1ccc(N2C(=O)C=C(Nc3cc(F)c(O)c(F)c3)C2=O)cc1 [Compound 30] | 2.91 µM | 111% |
| O=C1C=C(Nc2cc(O)c(F)cc2F)C(=O)N1c1ccccc1 [Compound 18] | > 50 µM | – |
| O=C1C=C(Nc2cc(F)c(O)c(F)c2)C(=O)N1c1ccccc1C(F)(F)F [Compound 47] | 19.7 µM | 91.1% |
| COC(=O)c1ccc(N2C(=O)C=C(Nc3cc(F)c(O)c(F)c3)C2=O)cc1 [Compound 44] | 19.1 µM | 99.6% |
| O=C1C=C(Nc2cc(F)c(O)c(F)c2)C(=O)N1c1ccc(C(F)(F)F)cc1 [Compound 39] | 4.32 µM | 94.9% |
| O=C1C=C(Nc2cc(F)c(O)c(F)c2)C(=O)N1c1cccc2ccccc12 [Compound 45] | 36.1 µM | 141% |
| O=C1C=C(Nc2cc(F)c(O)c(F)c2)C(=O)N1c1cc(F)c(F)c(F)c1 [Compound 28] | 16.9 µM | 31.3% |
| N#Cc1ccc(N2C(=O)C=C(Nc3cc(F)c(O)c(F)c3)C2=O)cc1 [Compound 40] | > 50 µM | – |
| O=C1C=C(Nc2cc(F)c(O)c(F)c2)C(=O)N1Cc1ccccc1 [Compound 43] | 1.03 µM | 67.5% |
| O=C1C=C(Nc2cc(F)c(F)c(F)c2)C(=O)N1c1ccccc1 [Compound 21] | > 50 µM | – |
| O=C1C=C(Nc2cc(F)c(O)cc2F)C(=O)N1c1ccccc1 [Compound 14] | 2.97 µM | 49.1% |
| O=C1C=C(Nc2cc(F)c(O)c(F)c2)C(=O)N1c1ccc(Oc2ccccc2)cc1 [Compound 61] | 3.77 µM | 33.4% |
| O=C1C=C(Nc2cc(F)c(O)c(F)c2)C(=O)N1C1CCCCC1 [Compound 67] | > 50 µM | 25.6% |
| O=C1C=C(Nc2cc(F)c(O)c(F)c2)C(=O)N1c1ccc2c(c1)OCO2 [Compound 32] | 12.9 µM | 38.1% |
